Test results from ChEMBL document CHEMBL5335769, “Design, synthesis and biological evaluation of novel diarylacylhydrazones derivatives for the efficient treatment of idiopathic pulmonary fibrosis” (Eur J Med Chem, 2023).
The source made the active and inactive calls. The calls are words filed in the database; no cut-off is given here.

Key:
Mus musculus [1] = test: Anti-fibrotic activity in bleomycin-induced C57BL/6 mouse model of pulmonary fibrosis assessed as reduction in vimentin level at 60 mg/kg, po pretreated with bleomycin followed by compound addition once daily on day 7 to 14; type: functional, organism-based; conditions: time 7.0 day
Mus musculus [2] = test: Anti-fibrotic activity in bleomycin-induced C57BL/6 mouse model of pulmonary fibrosis assessed as reduction in p-STAT3 level at 60 mg/kg, po pretreated with bleomycin followed by compound addition once daily on day 7 to 14; type: functional, organism-based; conditions: time 7.0 day
Mus musculus [3] = test: Anti-fibrotic activity in bleomycin-induced C57BL/6 mouse model of pulmonary fibrosis assessed as reduction in ratio of CD4+CD69+ T cells at 60 mg/kg, po pretreated with bleomycin followed by compound addition once daily on day 7 to 14 by flow cytometry analysis (reference value: 11.56%); type: functional, T-cell; set-up: scale not given: the % may be the effect or the level left; conditions: time 7 day
[4] = Potency index, ratio of NIF IC50 to test compound IC50 for antiproliferative activity against […] cells; type: functional, NIH3T3
Mus musculus [5] = test: Anti-fibrotic activity in bleomycin-induced C57BL/6 mouse model of pulmonary fibrosis assessed as reduction in ratio of macrophage cells at 30 mg/kg, po administered once daily by flow cytometry analysis (reference value: 21.51%); type: functional; set-up: scale not given: the % may be the effect or the level left
[6] = Oral bioavailability in Sprague-Dawley rat at 20 mg/kg measured upto 24 hrs; type: ADME, organism-based; conditions: in vivo
Mus musculus [7] = test: Anti-fibrotic activity in bleomycin-induced C57BL/6 mouse model of pulmonary fibrosis assessed as reduction in pathological lesions at 60 mg/kg, po pretreated with bleomycin followed by compound addition once daily on day 7 to 14 by H and E staining based analysis; type: functional, organism-based; conditions: time 7.0 day
NIH3T3 [8] = test: Antiproliferative activity against NIH3T3 cells at 3.3 uM after 72 hrs by MTT assay; type: functional, Mus musculus
A549 = test: Inhibition of TGF-beta1 induced epithelial-mesenchymal transition in human A549 cells assessed as reduction in E-cadherin protein level at 6 uM preincubated with TGF-beta1 for 1 hr followed by compound addition and measured after 24 hrs by immunofluorescence staining based analysis; type: functional, cell-based
[9] = Clearance in Sprague-Dawley rat at 2 mg/kg, iv measured upto 24 hrs; type: ADME, organism-based; conditions: in vivo
[10] = Cmax in Sprague-Dawley rat at 2 mg/kg, iv measured upto 24 hrs; type: ADME, organism-based; set-up: time < 24 hrs, dose 2 mg/kg, route iv; conditions: in vivo
Mus musculus [11] = test: Anti-fibrotic activity in bleomycin-induced C57BL/6 mouse model of pulmonary fibrosis assessed as reduction in ratio of dendritic cells at 60 mg/kg, po administered once daily by flow cytometry analysis (reference value: 20.21%); type: functional; set-up: scale not given: the % may be the effect or the level left
Mus musculus [12] = test: Anti-fibrotic activity in bleomycin-induced C57BL/6 mouse model of pulmonary fibrosis assessed as reduction in collagen I level at 60 mg/kg, po pretreated with bleomycin followed by compound addition once daily on day 7 to 14; type: functional, organism-based; conditions: time 7.0 day
[13] = Toxicity in C57BL/6 mouse assessed as effect on spleen tissue at 30 to 60 mg/kg, po administered once daily; type: organism-based; conditions: in vivo, dose 30-60 mg/kg
Mus musculus [14] = test: Anti-fibrotic activity in bleomycin-induced C57BL/6 mouse model of pulmonary fibrosis assessed as […] in E-Cadherin expression level at 30 to 60 mg/kg, po pretreated with bleomycin for 1 day followed by compound addition once daily for 22 days by Western blot analysis; type: functional, organism-based; conditions: dose 30-60 mg/kg, time 22.0 day
Mus musculus [15] = test: Anti-fibrotic activity in bleomycin-induced C57BL/6 mouse model of pulmonary fibrosis assessed as mouse survival rate at 60 mg/kg, po pretreated with bleomycin for 1 day followed by compound addition once daily for 22 days; type: functional, organism-based; conditions: time 22.0 day
[16] = Half life in Sprague-Dawley rat at 20 mg/kg, po measured upto 24 hrs; type: ADME, organism-based; conditions: in vivo
NIH3T3 [17] = test: Inhibition of TGF-beta1 induced NIH-3T3 cells activation assessed as effect on collagen I at 6 uM preincubated with TGF-beta1 for 1 hr followed by compound addition and measured after 24 hrs by DAPI staining based fluorescence microscopic analysis; type: functional, cell-based; conditions: Mus musculus
Mus musculus [18] = test: Anti-fibrotic activity in bleomycin-induced C57BL/6 mouse model of pulmonary fibrosis assessed as reduction in collagen deposition at 30 to 60 mg/kg, po pretreated with bleomycin for 1 day followed by compound addition once daily for 22 days by Masson't trichrome staining based analysis; type: functional; set-up: scale not given: the % may be the effect or the level left; conditions: dose 30-60 mg/kg, time 22 day
NIH3T3 [19] = test: Antiproliferative activity against NIH3T3 cells at 10 uM after 72 hrs by MTT assay; type: functional, Mus musculus
[20] = Toxicity in C57BL/6 mouse assessed as effect on liver tissue at 30 to 60 mg/kg, po administered once daily; type: organism-based; conditions: in vivo, dose 30-60 mg/kg
Mus musculus [21] = test: Anti-fibrotic activity in bleomycin-induced C57BL/6 mouse model of pulmonary fibrosis assessed as reduction in collagen I level at 30 to 60 mg/kg, po pretreated with bleomycin for 1 day followed by compound addition once daily for 22 days by immunohistochemical analysis; type: functional, organism-based; conditions: dose 30-60 mg/kg, time 22.0 day
[22] = target: Signal transducer and activator of transcription 3 (Homo sapiens) (UniProt P40763); test: Binding affinity to STAT3 in […] cells assessed as STAT3 stabilization incubated for 1 hr by CETSA; type: cell-based; conditions: NIH3T3
Sequence of Signal transducer and activator of transcription 3 (Homo sapiens) (P40763 whole entry): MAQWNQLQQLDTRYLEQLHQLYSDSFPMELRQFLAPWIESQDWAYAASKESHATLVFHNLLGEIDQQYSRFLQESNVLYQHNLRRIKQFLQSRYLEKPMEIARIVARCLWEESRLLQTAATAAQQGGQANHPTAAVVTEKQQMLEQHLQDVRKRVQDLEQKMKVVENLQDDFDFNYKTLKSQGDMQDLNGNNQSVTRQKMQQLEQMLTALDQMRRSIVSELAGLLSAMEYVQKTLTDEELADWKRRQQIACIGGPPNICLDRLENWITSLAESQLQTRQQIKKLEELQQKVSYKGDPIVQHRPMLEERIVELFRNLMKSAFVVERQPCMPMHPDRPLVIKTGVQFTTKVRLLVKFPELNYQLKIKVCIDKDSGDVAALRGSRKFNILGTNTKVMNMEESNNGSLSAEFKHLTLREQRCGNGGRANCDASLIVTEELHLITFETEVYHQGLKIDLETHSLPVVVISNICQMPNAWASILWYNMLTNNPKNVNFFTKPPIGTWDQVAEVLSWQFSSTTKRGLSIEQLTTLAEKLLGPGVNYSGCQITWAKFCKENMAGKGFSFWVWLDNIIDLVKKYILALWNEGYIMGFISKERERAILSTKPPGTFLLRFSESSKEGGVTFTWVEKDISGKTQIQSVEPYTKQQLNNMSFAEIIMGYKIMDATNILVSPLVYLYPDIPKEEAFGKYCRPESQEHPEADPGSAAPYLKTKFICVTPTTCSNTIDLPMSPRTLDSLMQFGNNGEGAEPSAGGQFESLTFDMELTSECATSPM

bioavailability [6]: 42.1%
clearance [9]: 92.8 mL/min/kg
Cmax [10]: 471 ng/mL
half-life [16]: 1.23 h
Activity [22]: Active
SMILES: O=C(N/N=C/c1ccc([N+](=O)[O-])s1)c1ccc(OCCCCCCN2CCCCC2)cc1
Activity (Mus musculus [1]): Active
Activity (Mus musculus [2]): Active
Activity (Mus musculus [3]): 2.66%
Ratio IC50 [4]: 5
Activity (Mus musculus [5]): 4.79%
Activity (Mus musculus [7]): Active
Activity (NIH3T3 [8]): 70.43%
inhibition (A549): Active
Activity (Mus musculus [11]): 11.71%
Activity (Mus musculus [12]): Active
Activity [13]: Non-Toxic
Activity (Mus musculus [14]): Active
Activity (Mus musculus [15]): Active
inhibition (NIH3T3 [17]): Active
Activity (Mus musculus [18]): 100%
Activity (NIH3T3 [19]): 81.88%
Activity [20]: Non-Toxic
Activity (Mus musculus [21]): Active
